The values below come from publication PMC8172068 (PLoS ONE, 2021).

As usually defined, the IC50 is the concentration needed to halve the response being measured.

Holding throughout (assay type): biochemical
The target of series [1] is T1, Acinetobacter baumannii rAcpA (Acinetobacter baumannii, UniProt A0ABX6CG12). In words: biochemical.
Series [2] has as its target T1, Acinetobacter baumannii rAcpA.
The target is the same in series [3]. In words: Hydrolysis of various phosphorylated compounds by rAcpA (released phosphate). The following applies: phosphate released relative to paranitrophenol released from PNPP x100. As to the method:
All incubations were carried out for 30 minutes at 37 °C after which time reactions were placed in an ice slurry for 3 minutes followed by addition of enzyme to the respective blanks and reactions were terminated by heating at 65 °C for 10 minutes followed by immersion in an ice slurry for 3 minutes. Released phosphate was determined by addition of 1.0 mL BIOMOL GREEN phosphate reagent (Enzo Life Sciences), and monitored at 620 nm using a Genesys 10 UV Scanning Spectrophotometer (Thermo Scientific). Paranitrophenol was monitored at 405 nm following addition of 1.7 mL 0.5 M Glycine buffer, pH 10. Following subtraction of blank values, paranitrophenol and released phosphate were quantitated using paranitrophenol and phosphate standard curves, respectively. […] Specific activity is expressed as nmoles paranitrophenol or free phosphate liberated mg^-1s^-1.

Where [4] appears, read: pH 6.0, divalent cation 2 mM final concentration.
Where [5] appears, read: compound at 2.0 mM final concentration.
Setting [6] is: compound at 0.1 mM final concentration.

Entries after “also recorded” stand apart in the source; their conditions may differ. Structures can show the parent of a compound that is named as a salt. Where two headings read alike, the source gives them in different places.

For the molecule `CCCCCCCCCCCCOS(=O)(=O)[O-].[Na+]` [Sodium Dodecyl Sulfate], the IC50 in series [1] (pH 6, read-out: IC50) was 100 µM; in series [1] (read-out: IC50), 100 µM.

As for `[Cl-].[Cl-].[Mg+2]` [MgCl2], in series [2] (setting [4]), the “PNPP hydrolysis as percent of that observed for NiCl2” value (“PNPP hydrolysis as percent” for short) is 85%.

With `O[C@@H](CS)[C@@H](O)CS` [Dithiothreitol], the IC50 in series [1] was 3000 µM. For the molecule Tween 20, in series [1], the “Percent Control” value is on record as 140% and the “stimulation of PNPP hydrolysis” value is on record as ~ 1.4 fold. Molecule `O=P(O)(O)OP(=O)(O)O` [Sodium Pyrophosphate] registered an IC50 in series [1] of 2500 µM. For the molecule Triton X100, the “concentration inhibiting 50%” value in series [1] is recorded as 0.32 % v/v. In series [1] (pH 6, read-out: IC50), the IC50 stood at 5100 µM.

Consider `[Na+].[Na+].[Na+].[O]=[V]([O-])([O-])[O-]` [Vanadate, sodium orthovanadate], for which the 50% inhibitory concentration (IC50) in series [1] (pH 6, read-out: IC50) was 125 µM; in series [1] (read-out: IC50), 125 µM. For CoCl2, the “PNPP hydrolysis as percent” value in series [2] (pH 6) is given as 76%.

Turning to `O[C@H](CS)[C@@H](O)CS` [Dithioerythritol], the IC50 in series [1] (pH 6, read-out: IC50) amounted to 2000 µM. With `[O]=[Mo](=[O])([OH])[OH]` [Molybdate], the IC50 turned out to be 350 µM in series [1] (pH 6, read-out: IC50) and 350 µM in series [1] (read-out: IC50). As to `[Cl][Mn][Cl]` [MnCl2], the “PNPP hydrolysis as percent” value in series [2] (setting [4]) was 50%. With `[F-].[Na+]` [Sodium Fluoride], the IC50 in series [1] (pH 6, read-out: IC50) was determined as 6000 µM.

As for `C=C1[C@@H](O)[C@@H]2O[C@]3(CC[C@H](/C=C/[C@@H](C)[C@@H]4CC(C)=C[C@@]5(O[C@H](C[C@@](C)(O)C(=O)O)CC[C@H]5O)O4)O3)CC[C@H]2O[C@@H]1[C@@H](O)C[C@H](C)[C@H]1O[C@@]2(CCCCO2)CC[C@H]1C` [Okadaic acid], in series [1], the “Percent Control” value worked out at 100% and the “sensitivity of rAcpA to compound” value is listed as “insensitive; also recorded: did not inhibit”.

`O=C(O)C(O)C(O)C(=O)O` (centres unmarked) [Sodium Tartrate] came in with an IC50 in series [1] of 2000 µM. Regarding `C[C@@H](OP(=O)(O)O)[C@H](N)C(=O)O` [Phospho-L-Threonine], in series [3] (setting [5]), the “Relative Activity” value came out at 4.5%. As for mercury, the “PNPP hydrolysis as percent” value in series [2] (setting [4]) is recorded as “very inhibitory”. Consider `O=C(O)CN(CCN(CC(=O)O)CC(=O)O)CC(=O)O` [EDTA], for which the IC50 in series [1] (pH 6, read-out: IC50) amounted to 1250 µM. As to R-R-A-pS-V-A [Serine Phosphopeptide], the “Relative Activity” value was 0.0% in series [3] (setting [6]) and 0% in series [3] (compound at 0.1 mM final concentration, listed as serine phosphopeptide). `O=C[C@H](O)[C@H](O)[C@H](O)COP(=O)(O)O` [Ribose-5-Phosphate]: the “Relative Activity” value in series [3] (setting [5]) is 20.0%.

Consider `OCCS` [β-Mercaptoethanol], for which the IC50 in series [1] (pH 6, read-out: IC50) worked out at 10000 µM. With `Nc1ncnc2c1ncn2[C@@H]1O[C@H](COP(=O)(O)OP(=O)(O)O)[C@@H](O)[C@H]1O` [ADP], in series [3] (setting [5]), the “Relative Activity” value is 1.9%.

Take `[Cl][Ni][Cl]` [NiCl2]: in series [2] (setting [4]), the “PNPP hydrolysis as percent” value is listed as “Maximum hydrolysis”. For `O=c1ccn([C@@H]2O[C@H](COP(=O)(O)O)[C@@H](O)[C@H]2O)c(=O)[nH]1` [UMP], in series [3] (setting [5]), the “Relative Activity” value stood at 8.7%. Still for that read-out and setting: to `O=C[C@@H](O)[C@@H](O)[C@H](O)[C@H](O)COP(=O)(O)O` [Mannose-6-Phosphate] belongs 10.6%. Regarding `O=P(O)(O)O` [Sodium Phosphate], in series [1] (pH 6, read-out: IC50), the IC50 came to 9000 µM.

Regarding `O=P(O)(O)OC[C@H]1O[C@H](O[C@H]2O[C@H](CO)[C@@H](O)[C@H](O)[C@H]2O)[C@H](O)[C@@H](O)[C@@H]1O` [Trehalose-6-Phosphate], the “Relative Activity” value in series [3] (setting [5]) amounted to 4.0%. Turning to `[Cl-].[Cl-].[Zn+2]` [ZnCl2], the “PNPP hydrolysis as percent” value in series [2] (setting [4]) is recorded as 11%.

B1: β-Casein: a 30 kDa protein containing 5 serine residues (protein, UniProt P02666 16-224, looked up)
Beta-casein: RELEELNVPGEIVESLSSSEESITRINKKIEKFQSEEQQQTEDELQDKIHPFAQTQSLVYPFPGPIPNSLPQNIPPLTQTPVVVPPFLQPEVMGVSKVKEAMAPKHKEMPFPKYPVEPFTESQSLTLTDVENLHLPLPLLQSWMHQPHQPLPPTVMFPPQSVLSLSQSKVLPVPQKAVPYPQRDMPIQAFLLYQEPVLGPVRGPFPIIV
For the molecule B1, the “Relative Activity” value in series [3] (setting [6]) was 1.2%.
